Measured values published in PubChem BioAssay (NCI).
Where “and” joins values, the source holds several entries; their conditions need not be identical. Equal values may be shown once.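 96-well plates; 48 h exposure; 5 concentrations. Endpoints by linear interpolation between flanking doses. Not reached: highest tested concentration assigned. At the GI50, growth is halved. TGI: concentration producing complete growth inhibition.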

Columns and labels:
Test in all cases: NCI anticancer screen, dose series, 48 h
HOP-62 NSCLC = system: HOP-62 NSCLC
UACC-257 melanoma = system: UACC-257 melanoma
HS 578T breast = system: HS 578T breast
CAKI-1 renal = system: CAKI-1 renal
SR leukemia = system: SR leukemia
COLO 205 colon = system: COLO 205 colon
SW-620 colon = system: SW-620 colon
OVCAR-5 ovarian = system: OVCAR-5 ovarian
TK-10 renal = system: TK-10 renal
SNB-75 CNS = system: SNB-75 CNS

Row | SMILES | GI50 (HOP-62 NSCLC) | TGI (HOP-62 NSCLC) | GI50 (UACC-257 melanoma) | TGI (UACC-257 melanoma) | GI50 (HS 578T breast) | TGI (HS 578T breast) | GI50 (CAKI-1 renal) | TGI (CAKI-1 renal) | GI50 (SR leukemia) | TGI (SR leukemia) | GI50 (COLO 205 colon) | TGI (COLO 205 colon) | GI50 (SW-620 colon) | TGI (SW-620 colon) | GI50 (OVCAR-5 ovarian) | TGI (OVCAR-5 ovarian) | GI50 (TK-10 renal) | TGI (TK-10 renal) | TGI (SNB-75 CNS) | GI50 (SNB-75 CNS)
1 | CCOc1ccc(Nc2nc(-c3c(C)nc4ncccn34)cs2)cc1 | 0.0306 µM | 18.4 µM | 6.77 µM | 21.3 µM | 0.0357 µM | 23.3 µM | 0.0144 µM | 15.8 µM | 0.0153 µM | 19.7 µM | < 0.01 µM | 0.0404 µM | 0.0218 µM | 16 µM | 0.0362 µM | 19 µM | 12.8 µM | 43 µM | – | –
2 | O=c1cccccc1[O-].O=c1cccccc1[O-].O=c1cccccc1[O-].[Sm+3] | 37.1 µM | > 100 µM | – | > 100 µM | – | – | – | > 100 µM | – | – | – | – | – | > 100 µM | – | > 100 µM | – | > 100 µM | – | –
3 | O=C(CC1=Nc2nnc(-c3nnc4n3C(=O)C(CC(=O)C3CC3)=N4)n2C1=O)C1CC1 | – | > 100 µM | – | > 100 µM | – | – | – | > 100 µM | – | – | – | > 100 µM | – | > 100 µM | – | > 100 µM | – | > 100 µM | > 100 µM | –
4 | CC1CC(C)C(C(O)CC2CC(=O)N(c3ccccc3)C(=O)C2)C(O)C1 (stereo not drawn) | – | > 100 µM | – | > 100 µM | – | – | – | > 100 µM | – | > 100 µM | – | > 100 µM | – | > 100 µM | – | > 100 µM | – | > 100 µM | > 100 µM | –
5 | C=CCN=C(N/N=C/c1ccc([N+](=O)[O-])o1)NS(=O)(=O)c1cc(C(=O)Nc2ccccc2)c(Cl)cc1SCC(N)=O | 53.9 µM | > 100 µM | 19.5 µM | 49 µM | 15.6 µM | 66.3 µM | > 100 µM | > 100 µM | – | – | 6.55 µM | > 100 µM | 5.99 µM | 37.4 µM | > 100 µM | > 100 µM | 51.8 µM | > 100 µM | > 100 µM | > 100 µM
6 | NC(=O)c1ncn(C2OC(CO)C(O)C2O)c1N (stereo not drawn) | > 100 µM | > 100 µM | > 100 µM | > 100 µM | > 100 µM | > 100 µM | > 100 µM | > 100 µM | – | – | > 100 µM | > 100 µM | > 100 µM | > 100 µM | > 100 µM | > 100 µM | > 100 µM | > 100 µM | > 100 µM | > 100 µM
7 | CC(=O)OCC1OC(n2c(=S)n(-c3ccccc3)c(=O)c3cc(Br)cc(Br)c32)C(OC(C)=O)C(OC(C)=O)C1OC(C)=O (stereo not drawn) | 19.5 µM and > 100 µM | 54.8 µM and > 100 µM | 46.6 µM and > 100 µM | > 100 µM | – | – | – | > 100 µM | > 100 µM | > 100 µM | – | > 100 µM | – | > 100 µM | – | > 100 µM | – | – | 92.5 µM and > 100 µM | –
8 | CCOc1ccccc1NC(=O)C1=C(C)NC(C)=C(C(=O)Nc2ccccc2OCC)C1c1ccc([N+](=O)[O-])cc1 | – | > 100 µM | – | > 100 µM | – | – | – | > 100 µM | – | > 100 µM | – | > 100 µM | – | > 100 µM | – | > 100 µM | – | – | > 100 µM | –
9 | O=C(/C=C(\[O-])c1ccccc1)CCCCCCC(=O)/C=C(\[O-])c1ccccc1.O=C(/C=C(\[O-])c1ccccc1)CCCCCCC(=O)/C=C(\[O-])c1ccccc1.O=C(/C=C(\[O-])c1ccccc1)CCCCCCC(=O)/C=C(\[O-])c1ccccc1.[Nd+3].[Nd+3] | > 50 µM | > 50 µM | > 50 µM | > 50 µM | – | – | > 50 µM | > 50 µM | – | – | > 50 µM | > 50 µM | > 50 µM | > 50 µM | > 50 µM | > 50 µM | > 50 µM | > 50 µM | > 50 µM | 3.3 µM
